In US20240052079A1 (OREGON HEALTH & SCIENCE UNIVERSITY, priority 2021, published 2024):
Where two headings read alike, the source gives them in different places.

Assays:
[1] = Hydrolytic degradation kinetics of neat monomers by 1H NMR; type: physicochemical; settings: for Percent remaining monomer: 50 mM monomer, aqueous pH=1, 37° C.; for half-life at 50 mM: fit to exponential decay curves, pH=1, read-out: monomer half-life (converted); for final degradation percentage: over one month, acidic aqueous conditions (pH=1)
Description: Neat monomers were subject to the hydrolytic degradation kinetics assay. An aqueous solution (pH=1) was prepared using HPLC grade water and adjusted using 1.0 M HCI. A 50 mM solution of each monomer (n=3) was prepared using 1.0 mL of the acidic aqueous solution. A capillary tube was filled with a 50 mM solution of tetramethylammonium bromide dissolved in D2O and flame sealed. The capillary tube was placed at the bottom on the NMR tube to allow the “locking on” of the instrument and to act as an internal standard. ^1H NMR spectra were obtained using a water suppression by excitation sculpting experiment. After the initial reading, the NMR tubes were flame sealed and incubated at 37° C. During the first week and after 12, 19, and 30 days, the samples were removed from incubation to obtain water suppressed ^1H NMR spectra. To determine the amount of monomer degradation, spectra were first aligned using the ITSD singlet peak and then an integration region unique to a monomer vinyl proton and an integration region unique to a degradation product (methacrylic or acrylic acid) vinyl proton were used to calculate the ratio of monomer to degradation product. […] Additional integration regions on either side of the vinyl region were used to determine the average amount of noise in each spectra. Degradation product values with a signal to noise ratio of less than 10 were considered to show no measurable amount of degradation.

[2] = tested on: human dental pulp stem cells (hDPSC); assay: Cytotoxicity (MTT) assay, hDPSC; settings: for biocompatibility compared with methacrylates: DPSC; for IC50: read-out: IC50 DPSC
Description: (§1) For the cytotoxicity assay, two cell types were tested—odontoblast-like cell line (OD-21) and human dental pulp stem cells (hDPSC) (cat #PT5025, Lonza). […] Cells were kept in an incubator at 37° C., under humidified atmosphere with 5% CO 2 for 2-3 days until confluence was reached. Next, cells were washed with Dulbecco's phosphate buffered saline solution (PBS—Thermo Fisher Scientific) and detached from the culture flasks using 0.05% trypsin/0.02% EDTA (Sigma). Cells were counted using a hemocytometer, then 10,000 cells per well were seeded in 96-well plates for 24 hours (n=6).
(§2) From these stocks, six different concentrated solutions (0.05, 0.1, 0.5, 1, 5 and 10 mM) were prepared in cell culture medium (DMEM for OD-21 and α-MEM for DPSC) and 100 μl per well was used to incubate the cells.
(§3) Next, 200 μl of DMSO was added to each well, plates were gently agitated and the optical density was read at 570 nm and 630 nm in a spectrophotometer (Epoch Microplate Spectrophotometer, BioTek Instruments Inc, Winooski, VT, USA). OD-21 and DPSCs cultured in the medium free from the monomers were used as negative controls. Additionally, since monomer fluorescence could affect the readings, 10 mM samples of each tested monomer were incubated without cells and their absorbance measured to provide a second control (i.e. medium control). The percentage of cell viability was calculated according to the equations:
(§4) ODcells=(OD570 exper−OD630 exper)−(OD570 med contr−OD630 med contr) Equation (3)
(§5) where: ODcell is the absorbance of the remaining cells after exposure; ODexper is the absorbance of the experimental specimens at 570 nm and 630 nm; ODmed contr is the absorbance of the 10 mM solution of each monomer without cells at 570 nm and 630 nm.
(§6) where: CV (%) is percentage of cell viability in relation to the negative control (cells+medium free from the monomers); ODcells neg contr is the cells absorbance of the negative control; ODcells exper is the cells absorbance of the experimental samples.
(§7) The half maximal inhibitory concentration (IC50) of each tested monomer was determined based on the plots of cell inhibition (%) as a function of the monomers concentration (mM) using GraphPad software.

[3] = Partition coefficient (logP); type: physicochemical; settings: values not given; source of logP not stated
Source text: When stored dry, all materials had flexural strengths and elastic moduli that were statistically similar to the control. […] […]. The logP determines the likelihood of a compound to partition into water or octanol, with the most hydrophilic compounds presenting lower logP values. Amides are in general more hydrophilic than methacrylates because of the […] of the nitrogen atom in the amide compared to the oxygen in the methacrylate. In addition, the presence of a lone pair of electrons on the nitrogen leads to stabilization of the carbon-nitrogen bond by resonance with the carbonyl. The oxygen in the amide, in turn, assumes a partial negative charge (δ−), making it more prone to function as a hydrogen-bond acceptor. Conversely, the hydrogen of the N-H dipole is partially positively charged (δ+), which renders it a hydrogen-bond donor.

[4] = tested on: odontoblast-like cell line (OD-21); assay: Cytotoxicity (MTT) assay, OD-21 cells; settings: for IC50: read-out: IC50 OD-21; for cell viability, comparison between monomers: OD-21, at 10 and 5 mM
Description: as §1, §2, §3, §4, §5, §6, §7

[5] = Cytotoxicity (MTT) assay, OD-21 cells; settings: mouse
Description: as §1, §2, §3, §4, §5, §6, §7

[6] = neat monomer, 24 hours exposure, MTT

Molecule | Percent remaining monomer ([1]; day 0) | Percent remaining monomer ([1]; day 1) | Percent remaining monomer ([1]; day 2) | Percent remaining monomer ([1]; day 3) | Percent remaining monomer ([1]; day 4) | Percent remaining monomer ([1]; day 5) | Percent remaining monomer ([1]; day 6) | Percent remaining monomer ([1]; day 7) | Percent remaining monomer ([1]; day 19) | Percent remaining monomer ([1]; day 30) | half-life at 50 mM [1] | final degradation percentage [1] | IC50 ([2]; Homo sapiens, 24 h) | IC50 ([4]; Mus musculus, 24 h) | Percent remaining monomer ([1]; day 12) | cell viability, comparison between monomers [4] | IC50 [2, 6] | IC50 [4, 6] | further results
C=CC(=O)N(C)CCN(CCN(C)C(=O)C=C)CCN(C)C(=O)C=C | 100.0 ± 0.0% | 99.8 ± 0.2% | 99.8 ± 0.2% | 99.3 ± 0.7% | 99.2 ± 0.9% | 99.1 ± 0.7% | 99.0 ± 1.0% | 98.7 ± 1.3% | 96.7 ± 1.8% | 93.7 ± 0.7% | 350 days | 6.29% | 1.07 mM | 8.02 mM | – | – | – | – | biocompatibility compared with methacrylates ([2]; 0.5 mM): less biocompatible than the tested methacrylates; logP, ranking among tested monomers [3]: lower logP
C=CC(=O)N(C)CCCN(C)CCCN(C)C(=O)C=C | 100.0 ± 0.0% | 99.8 ± 0.01% | 100.0 ± 0.0% | 100.0 ± 0.0% | 100.0 ± 0.0% | 99.7 ± 0.01% | 100.0 ± 0.0% | 100.0 ± 0.0% | 99.7 ± 0.3% | 98.7 ± 1.3% | – | 1.27% | 0.54 mM | 4.75 mM | 100.0 ± 0.0% | the lowest cell viability | – | – | biocompatibility compared with methacrylates ([2]; 5 mM): less biocompatible than the tested methacrylates; viability at 24 h, 5 mM [5]: 24%; viability at 24 h, 10 mM [5]: 12%
N,N-Diethyl-1,3-bis(acrylamido)propane [DEBAAP, reference compound] | – | – | – | – | – | – | – | – | – | – | – | – | – | – | – | – | 8.43 mM | 7.11 mM | –
urethane dimethacrylate [UDMA, reference compound] | – | – | – | – | – | – | – | – | – | – | – | – | – | – | – | – | 10.3 mM | 7.94 mM | –
C=C(C)C(=O)OCCO [HEMA, 2-hydroxyethyl methacrylate, reference compound] | 99.2 ± 0.6% | 93.1 ± 0.04% | 87.6 ± 0.02% | 81.3 ± 0.02% | 76.5 ± 0.01% | 71.3 ± 0.02% | 66.1 ± 0.02% | 61.9 ± 0.01% | 25.2 ± 0.02% | 10.6 ± 0.1% | 9.5 days | 89.38% | 6.87 mM | 15.4 mM | 43.1 ± 0.02% | the highest | – | – | –
C=CC(=O)NN1CCCN(NC(=O)C=C)CC1 [BAADA, N,N′-bis(acrylamido) 1,4-diazepane] | 100.0 ± 0.0% | 100.0 ± 0.0% | 100.0 ± 0.0% | 100.0 ± 0.0% | 99.8 ± 0.2% | – | 100.0 ± 0.0% | – | 92.3 ± 0.7% | 98.9 ± 1.2% | – | 1.13% | 3.65 mM | 9.98 mM | 99.6 ± 0.4% | – | – | – | –
